Experimental data: PMC5884648, “Relationship between the agonist activity of synthetic ligands of TRAIL-R2 and their cell surface binding modes” (Oncotarget, 2018)
*1 amine or outer side, *2 acyl side, *3 side chain or, on linkers, in order; H or OH if unused. Where a SMILES comes first, the peptide text is derived from it. Bridges are numbered along the chain shown (N, C = ends). Roman numbers before positions name the chains, in order. X1 = CN(CCCC(=O)NC(CCC(=O)[*:1])CCC(=O)[*:2])C(=O)c1ccccc1-c1c2ccc(=N)c(S(=O)(=O)O)c-2oc2c(S(=O)(=O)O)c(N)ccc12

Experiments:
[1] = tested on: BJAB cells; test: Cell viability MTS assay, BJAB; type: cell-based, human; settings: 24 hours
Protocol: (§1) BJAB, Jurkat and HCT116 cells (10^5 cells/well) were cultured in 100 µL of culture medium in 96-flat bottom well plates. The next day, cells were treated with the indicated concentrations of the different TRAILmin/DR5 peptides. After 24 hours of treatment cell viability measurement was performed by the MTS assay according to the manufacturer specification (Promega Corporation, Madison, WI, USA).

[2] = tested on: HCT116 cells; test: Cell viability MTS assay, HCT116; type: cell-based, human; settings: 24 hours
Protocol: as §1

[3] = target: T1, human TRAIL-R2 (Homo sapiens, UniProt O14763); test: Surface plasmon resonance on sensor-immobilized TRAIL-R2; type: binding; settings: SPR, 25° C, Langmuir model
T1 construct: purchased Enzo Life Sciences
Protocol: SPR assays were performed on a Biacore T200™, at 25° C. The running buffer was HBS-EP [10 mM HEPES (pH 7.4) containing 0.15 M NaCl, 3.4 mM EDTA and 0.005% (v/v) Tween P20]. The human TRAIL-R2 (Enzo Life Sciences, Farmingdale, NY, USA) receptor was immobilized on a sCM5 sensor chip (GE Healthcare) using the standard amine coupling procedure. The receptors were diluted in 10 mM acetate buffer (pH 5.0) at a concentration of 5 μg/mL. The TRAIL-R2 immobilization level on the sensor chip was 430 RU. Peptides were injected at a flow rate of 5 μL/min for 120 s and allowed to dissociate for an additional 420 s. Surfaces were then regenerated for 5 s with 25 mM HCl. All binding curves were double-referenced (i.e. subtraction of the data of the empty flow cell followed by the subtraction of the data from a running buffer injection cycle).
(§2) Double-referenced SPR binding curves sets were fitted globally using the BIAevaluation 4.1.1 (GE Healthcare Biacore) or TraceDrawer (Ridgeview Diagnostics AB, Uppsala, Sweden) softwares. The signal recorded with the LigandTracer on an empty spot or slide was subtracted from that recorded on cell-carrying slides. The resulting binding curves were analyzed by kinetic distribution analysis using the tool Interaction Map (Ridgeview Diagnostics AB, Uppsala, Sweden). Interaction Map decomposes the kinetic curve recorded for the binding of a homogeneous ligand to a heterogeneous group of targets into its different components. Results are represented as interaction maps (kon versus koff, log scale), where the color of each populated area represents its degree of contribution to the kinetic curve (red = high contribution, blue = low contribution).

[4] = target: T2, TRAIL-R2 expressed on HCT116 cells (Homo sapiens, UniProt O14763); test: LigandTracer real time binding on living HCT116 cells; settings: HCT116 cells expressing TRAIL-R2
T2 construct: we used BJAB, HCT116 and Jurkat that express a natural level of TRAIL-R2 receptors; endogenous in cells; host or cells: HCT116
Protocol: The adherent cells HCT116-TRAIL-R2-DEF and HCT116 cells were directly plated on glass slides (Ø20 mm) (10^6 cells/well). The cells in suspension (BJAB and BJAB-TRAIL-R2-DEF) were covalently adhered to glass slides coated with poly-L-lysine (0.1% v/v) (Sigma Aldrich, Saint Louis, MO, USA). The adhesion was strong enough for measurement during 10h. After 24 hours, the slides were fixed with superglue at different locations of a Petri dish, which was inserted in the LigandTracer Green instrument (Ridgeview Instrument AB, Uppsala, Sweden). An empty spot or empty glass slide fixed to the Petri dish was used to record the background signal. This set-up allowed the simultaneous monitoring of the binding of a given peptide to different cell-carrying glass slides fixed to the dish. […] The fluorescence signal is recorded over time when the slide is out of the solution, and therefore corresponds to the amount of bound peptide. […]
Double-referenced SPR binding curves sets were fitted globally using the BIAevaluation 4.1.1 (GE Healthcare Biacore) or TraceDrawer (Ridgeview Diagnostics AB, Uppsala, Sweden) softwares. The signal recorded with the LigandTracer on an empty spot or slide was subtracted from that recorded on cell-carrying slides. The resulting binding curves were analyzed by kinetic distribution analysis using the tool Interaction Map (Ridgeview Diagnostics AB, Uppsala, Sweden). […]

[5] = target: T3, TRAIL-R2 expressed on Jurkat cells (Homo sapiens, UniProt O14763); test: LigandTracer real time binding on living Jurkat cells
T3 construct: we used BJAB, HCT116 and Jurkat that express a natural level of TRAIL-R2 receptors; endogenous in cells; host or cells: Jurkat

[6] = target: T4, TRAIL-R2 on BJAB cells (Homo sapiens, UniProt O14763); test: Flow cytometry staining with fluorescent peptides, BJAB; type: binding
T4 construct: expressed in transfected cells
Protocol: (§3) 10^6 cells were washed in PBS containing 2% FCS and then incubated at 4° C for 30 min with an anti-TRAIL-R2 antibody (clone BK9 Diaclone, Besançon, France) according to concentration recommended by the manufacturer or with fluorescent peptides at the concentration of 1 µM. After two washes in PBS-2% FBS, TRAIL-R2 expression was monitored by flow cytometry (Guava easyCyte™, Merck Milipore, Darmstadt, Germany) and data were analyzed with InCyte Software (Merck Milipore).

[7] = target: T5, TRAIL-R2 on HCT116 cells (Homo sapiens, UniProt O14763); test: Flow cytometry staining with fluorescent peptides, HCT116; type: binding
T5 construct: we used BJAB, HCT116 and Jurkat that express a natural level of TRAIL-R2 receptors; endogenous in cells; host or cells: HCT116
Protocol: as §3

[8] = target: TRAIL-R2 expressed on BJAB cells (Homo sapiens, UniProt O14763); test: LigandTracer real time binding on living BJAB cells; parameters: expressed in transfected cells
Protocol: The adherent cells HCT116-TRAIL-R2-DEF and HCT116 cells were directly plated on glass slides (Ø20 mm) (10^6 cells/well). The cells in suspension (BJAB and BJAB-TRAIL-R2-DEF) were covalently adhered to glass slides coated with poly-L-lysine (0.1% v/v) (Sigma Aldrich, Saint Louis, MO, USA). The adhesion was strong enough for measurement during 10h. After 24 hours, the slides were fixed with superglue at different locations of a Petri dish, which was inserted in the LigandTracer Green instrument (Ridgeview Instrument AB, Uppsala, Sweden). An empty spot or empty glass slide fixed to the Petri dish was used to record the background signal. This set-up allowed the simultaneous monitoring of the binding of a given peptide to different cell-carrying glass slides fixed to the dish. Three mL of solution (culture medium without or with fluorescent peptide) were added to the dish. In the LigandTracer instrument, the dish is tilted and rotates. Consequently the 3 mL solution covers only the lower part of the dish and each cell-carrying slide is alternatively in contact and out of contact with the solution (at intervals of 8 to 16 s). The fluorescence signal is recorded over time when the slide is out of the solution, and therefore corresponds to the amount of bound peptide. The solution in the dish was initially the culture medium (∼30 min) to provide a stable base line. The fluorescent peptide was then added in increasing doses (10, 30 and 90 nM) every two to three hours. Finally the peptide-containing sample was replaced with fresh medium and the dissociation of the peptide from the cells was followed overnight. The measurements were conducted at room temperature (approximately 20° C).
as §2

TRAIL-R2 expressed on BJAB cells, sequence (O14763 56-440): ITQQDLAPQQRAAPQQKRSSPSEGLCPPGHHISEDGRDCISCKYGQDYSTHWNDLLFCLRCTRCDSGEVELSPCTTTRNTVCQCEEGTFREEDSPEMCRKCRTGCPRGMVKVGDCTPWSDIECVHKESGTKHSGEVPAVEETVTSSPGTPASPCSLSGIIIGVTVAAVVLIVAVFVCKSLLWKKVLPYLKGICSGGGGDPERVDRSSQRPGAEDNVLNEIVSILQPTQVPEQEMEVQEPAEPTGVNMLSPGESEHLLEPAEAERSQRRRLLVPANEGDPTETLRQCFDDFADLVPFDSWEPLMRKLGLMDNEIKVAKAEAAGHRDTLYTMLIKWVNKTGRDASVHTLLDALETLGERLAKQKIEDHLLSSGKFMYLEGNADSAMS
T4 sequence (O14763 56-440): as above
T1 sequence (O14763 56-440): as above
T5 sequence (O14763 56-440): as above
T2 sequence (O14763 56-440): as above
T3 sequence (O14763 56-440): as above

## CC[C@H](C)[C@@H]1NC(=O)[C@H](CCCNC(=N)N)NC(=O)[C@H](CC(N)=O)NC(=O)[C@H](CC(=O)O)NC(=O)[C@H](CC(C)C)NC(=O)[C@@H](NC(=O)[C@H](CC(=O)O)NC(=O)[C@H](Cc2c[nH]c3ccccc23)NC(C)=O)CSSC[C@@H](C(=O)N[C@H](C(=O)N[C@@H](CCCNC(=N)N)C(=O)N[C@@H](CC(C)C)C(N)=O)C(C)C)NC(=O)[C@H](CCC(N)=O)NC(=O)[C@H](CCCNC(=N)N)NC(=O)[C@H](CCCCNC(=O)CCC(CCC(=O)NCCCC[C@@H]2NC(=O)CNC(=O)[C@H]([C@@H](C)CC)NC(=O)[C@H](CCCNC(=N)N)NC(=O)[C@H](CC(N)=O)NC(=O)[C@H](CC(=O)O)NC(=O)[C@H](CC(C)C)NC(=O)[C@@H](NC(=O)[C@H](CC(=O)O)NC(=O)[C@H](Cc3c[nH]c4ccccc34)NC(C)=O)CSSC[C@@H](C(=O)N[C@H](C(=O)N[C@@H](CCCNC(=N)N)C(=O)N[C@@H](CC(C)C)C(N)=O)C(C)C)NC(=O)[C@H](CCC(N)=O)NC(=O)[C@H](CCCNC(=N)N)NC2=O)NC(=O)CCCN(C)C(=O)c2ccccc2-c2c3ccc(=N)c(S(=O)(=O)O)c-3oc3c(S(=O)(=O)O)c(N)ccc23)NC(=O)CNC1=O (stereo partly shown) [f2d] (I: Ac-WDCLDNRIGKRQCVRL-NH2 / II: Ac-WDCLDNRIGKRQCVRL-NH2; disulfide I:3-I:13, II:3-II:13; linker I:10-II:10 via X1; N-terminus and C-terminus assumed)
[1]
  apoptosis induction in BJAB cells: induced apoptosis
[2]
  apoptosis induction in HCT116 cells: scarcely induced their apoptosis
[3]
  koff: 0.00026 s⁻¹
  kon: 150000 M⁻¹ s⁻¹
[4]
  cell surface binding: bound weakly
[5]
  cell surface binding: weak binding signal, if any
[6]; BJAB cells deficient for TRAIL-R2, peptide 1 µM
  binding by flow cytometry: not
[6]; BJAB cells expressing TRAIL-R2, peptide 1 µM
  binding by flow cytometry: bound
[7]; HCT116 cells deficient for TRAIL-R2, peptide 1 µM
  binding by flow cytometry: not
[7]; HCT116 cells expressing TRAIL-R2, peptide 1 µM
  binding by flow cytometry: bound
[8]; BJAB cells deficient for TRAIL-R2
  cell surface binding: weak signals
[8]; BJAB cells expressing TRAIL-R2
  cell surface binding: strong binding
[8]; BJAB cells that expressed TRAIL-R2, 10, 30 and (f1d) 90 nM
  fluorescent signal reached: > 25
